Experimental data from patent US6342504B1, “Aromatic heterocyclic derivatives as enzyme inhibitors” (priority 1994, dated 2002).
Structures can show the parent of a compound that is named as a salt. Where two headings read alike, the source gives them in different places.

What was measured:
Human rt-PA (Activase) = target: T1, Human rt-PA (Activase) (Homo sapiens, UniProt P00750); experiment: biochemical; settings: 30 minute incubation; 1.0 nM enzyme; read-out: IC50 rt-PA (Table 2)
T1 construct: purchased Genentech Inc
Description: The ability of compounds of the present invention to act as a selective inhibitor of thrombin catalytic activity was assessed by determining the concentration of compound which inhibited the activity of this enzyme by 50%, (IC50), and comparing this value to that determined for all or some of the following related serine proteases: recombinant tissue plasminogen activator (rt-PA), plasmin, activated protein C, chymotrypsin, factor Xa and trypsin.
(§1) The buffer used for all assays was HBSA (10 mM HEPES, pH 7.5, 150 mM sodium chloride, 0.1% bovine serum albumin).
The assay for IC50 determinations was conducted by combining in appropriate wells of a Corning microtiter plate, 50 microliters of HBSA, 50 microliters of the test compound at a specified concentration (covering a broad concentration range) diluted in HBSA (or HBSA alone for VO (uninhibited velocity) measurement), and 50 microliters of the enzyme diluted in HBSA. Following a 30 minute incubation at ambient temperature, 50 microliters of the substrate at the concentrations specified below were added to the wells, yielding a final total volume of 200 microliters. The initial velocity of chromogenic substrate hydrolysis was measured by the change in absorbance at 405 nm using a Thermo Max® Kinetic Microplate Reader over a 5 minute period in which less than 5% of the added substrate was utilized. The concentration of added inhibitor which caused a 50% decrease in the initial rate of hydrolysis was defined as the IC50 value.
Recombinant Tissue Plasminogen Activator (rt-PA) Assay
rt-PA catalytic activity was determined using the substrate, Pefachrome t-PA (CH3SO2-D-hexahydrotyrosine-glycyl-L-arginine-p-nitroaniline, obtained from Pentapharm Ltd.). The substrate was made up in deionized water followed by dilution in HBSA prior to the assay in which the final concentration was 500 micromolar (about 3-times Km). Human rt-PA (Activase®) was obtained from Genentech Inc. The enzyme was reconstituted in deionized water and diluted into HBSA prior to the assay in which the final concentration was 1.0 nM.

human aPC = target: T2, human aPC (Homo sapiens, UniProt P04070); experiment: biochemical; settings: 30 minute incubation; 1.0 nM enzyme; read-out: IC50 aPC (Table 2)
T2 construct: purchased Hematologic Technologies, Inc
Description: as §1
Following a 30 minute incubation at ambient temperature, 50 microliters of the substrate at the concentrations specified below were added to the wells, yielding a final total volume of 200 microliters.
Activated Protein C (aPC) Assay
aPC catalytic activity was determined using the chromogenic substrate, Pefachrome PC (delta-carbobenzloxy-D-lysine-L-prolyl-L-arginine-p-nitroaniline dihydrochloride), obtained from Pentapharm Ltd.). […] Purified human aPC was obtained from Hematologic Technologies, Inc. The enzyme was diluted into HBSA prior to assay in which the final concentration was 1.0 nM.

[1] = tested on: clot formation on silk thread in A-V shunt; experiment: Multiple extracorporeal (A-V) shunt model in rats utilizing oral dosing; assay type: in vivo; settings: rat, read-out: ED50 value (dose that reduced the clot size by 50%)
Description: The compounds of Example 10 and 143 were evaluated in a multichamber A-V shunt model in rats. The A-V shunt model is one of the most common and generally used systems to evaluate antithrombotic compounds: Smith, J. R. and White, A. M. Br. J. Pharmacol., 77: 29-38 (1982). In this model a localized clot made up of primarily fibrin with some platelet and macrophage involvement (Shand, R. A. and Smith, J. R. and Wallis, R. B. Thromb. Res., 36: 223-232 (1984)), is formed on an artificial thrombogenic surface (typically a segment of silk or cotton thread) contained in a sialstic chamber which is part of an exteriorized shunt between the carotid artery and jugular vein. The procedure described in this Example is a modified A-V shunt model that allows for oral dosing of test agents and subsequent evaluation of efficacy over a two to three hour window in time.
Briefly, male Harlan Sprague Dawley rats (420-450 g) were acclimated at least 72 hours prior to use. The animals were fasted for 12 hours prior to surgery with free access to water. Unanesthetized animals were grouped into three or four dosage groups (six or seven animals per group) and administered test agents orally via gavage needle, at doses of 1.0, 3.0, 10 and 50 mg/kg for the compound of Example 10, and 3.0, 10 and 30 mg/kg for the Compound of Example 143. Immediately after oral dosing, animals were anesthetized with sodium pentobarbital (Nembutal) given intraperitoneally at a dose of 50 mg/kg body weight, and placed on a isothermal pad to maintain body temperature. The level of anesthesia was monitored every 15 minutes by neuro-response to a tail pinch, respiration and core temperature. The desired depth of surgical anesthesia was maintained by administering subsequent doses (5 mg/kg) intravenously. The left femoral artery was catheterized using standard procedures for blood pressure monitoring and blood sampling, with polyethylene tubing (PE50). The left femoral vein was catheterized with PE50 tubing for delivery of anethestic.
The exteriorized shunts were assembled by connecting two pieces of saline filled 12.5 cm PE90 tubing with a 6 cm piece of PE160 tubing containing a 6 cm piece of silk suture size 3 and clamped with hemostats. A small 0.5 cm portion of the silk thread protrudes from the junction of the chamber with the shunt. The left jugular vein and right carotid artery were catheterized with the ends of the PE90 shunt. The shunt was unclamped and blood allowed to flow from the carotid artery, through the chamber, and exit the shunt via the jugular vein. After 15 minutes, both sides of the chamber were clamped and the suture containing the clot removed following detachment of the arterial end of the chamber. The clot was immediately weighed and recorded. This procedure takes place at predetermined intervals (60, 90, 120, and 150 minutes after oral dosing) to allow assessment of efficacy over a large window in time. Four shunts were placed with flow initiated at 45, 75, 105, and 135 minutes after oral compound administration. Clot weight from the four shunts was the primary endpoint of the protocol. Blood pressure, heart rate core temperature and respiration were monitored continuously. Following termination of the experiment the animals were euthanized with a 120 mg/kg dose of Nembutal. One experiment was performed per animal.
ED50 values were calculated at 60, 90, 120, and 150 minutes after oral dosing of test compound. ED50 is that dose that reduced the clot size by 50%. […]

T1 sequence (P00750 36-562): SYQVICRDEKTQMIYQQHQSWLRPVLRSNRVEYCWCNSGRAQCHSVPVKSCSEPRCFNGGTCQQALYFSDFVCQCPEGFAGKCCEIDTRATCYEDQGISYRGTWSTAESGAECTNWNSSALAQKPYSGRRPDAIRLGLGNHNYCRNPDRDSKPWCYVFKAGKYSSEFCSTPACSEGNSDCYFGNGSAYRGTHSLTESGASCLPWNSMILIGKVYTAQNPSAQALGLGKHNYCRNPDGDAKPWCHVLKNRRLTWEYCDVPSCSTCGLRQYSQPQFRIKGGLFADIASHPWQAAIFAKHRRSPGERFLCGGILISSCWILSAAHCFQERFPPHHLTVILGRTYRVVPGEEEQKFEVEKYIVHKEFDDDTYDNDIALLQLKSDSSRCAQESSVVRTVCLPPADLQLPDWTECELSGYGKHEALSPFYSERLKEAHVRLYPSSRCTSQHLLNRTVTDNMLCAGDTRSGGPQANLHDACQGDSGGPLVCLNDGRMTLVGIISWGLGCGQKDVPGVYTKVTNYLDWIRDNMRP
T2 sequence (P04070 43-197): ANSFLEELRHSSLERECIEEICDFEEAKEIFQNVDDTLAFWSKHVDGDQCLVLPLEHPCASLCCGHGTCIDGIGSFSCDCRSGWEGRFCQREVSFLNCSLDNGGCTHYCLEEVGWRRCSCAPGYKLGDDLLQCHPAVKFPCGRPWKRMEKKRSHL
T2 sequence (P04070 212-461): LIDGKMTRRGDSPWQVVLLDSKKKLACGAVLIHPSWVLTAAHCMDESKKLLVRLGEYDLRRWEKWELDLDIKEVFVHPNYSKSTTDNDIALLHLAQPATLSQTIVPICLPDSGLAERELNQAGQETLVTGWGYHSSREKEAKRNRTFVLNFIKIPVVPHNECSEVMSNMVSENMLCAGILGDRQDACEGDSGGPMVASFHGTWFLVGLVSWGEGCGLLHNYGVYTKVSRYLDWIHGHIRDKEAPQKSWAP

N=C(N)NCCC[C@@H](C=O)NC(=O)Cn1cccc(NS(=O)(=O)Cc2ccccc2)c1=O [Example 10, [3-[(benzylsulfonyl)amino]-2-oxo-1,2-dihydropyridyl]acetyl-L-argininal, trifluoroacetate salt]
IC50 (Human rt-PA (Activase)): > 2500 nM
IC50 (human aPC): > 2500 nM
ED50 ([1]; 1 h, 60 min after oral dose): < 1 mg/kg
ED50 ([1]; 1.5 h, 90 min after oral dose): 2.9 mg/kg
ED50 ([1]; 2 h, 120 min after oral dose): 2.9 mg/kg
ED50 ([1]; 150 min after oral dose): 8.2 mg/kg
